Measured values from ChEMBL document CHEMBL5308541, “MAIP: An Open-Source Tool to Enrich High-Throughput Screening Output and Identify Novel, Druglike Molecules with Antimalarial Activity” (ACS Med Chem Lett, 2023).

Assays:
Plasmodium falciparum [1] = test: Hit confirmation in dose-response curve in NF54 nanoGlo assay, at 72h; type: functional, organism-based, Erythrocyte; design: timepoint 72 hour; conditions: Plasmodium falciparum, NF54, Erythrocyte, 72 h
Plasmodium falciparum [2] = test: Hit confirmation in dose-response curve in NF54 pLDH assay, at 72h; type: functional, organism-based, Erythrocyte; design: timepoint 72 hour; conditions: Plasmodium falciparum, NF54, Erythrocyte, 72 h
Plasmodium falciparum [3] = test: Hit confirmation in dose-response curve in Dd2 pLDH assay, at 72h; type: functional, organism-based, Erythrocyte; design: timepoint 72 hour; conditions: Plasmodium falciparum, Dd2, Erythrocyte, 72 h
Plasmodium falciparum [4] = test: Hit confirmation in dose-response curve in NF54 nanoGlo assay, at 12h; type: functional, organism-based, Erythrocyte; design: timepoint 12 hour; conditions: Plasmodium falciparum, NF54, Erythrocyte, 12 h
[5] = Hit confirmation in dose-response curve in HepG2 cytotoxicity assay, at 72h; type: toxicity, cell-based, Homo sapiens; design: timepoint 72 hour; conditions: human, HepG2 cells

Structure (SMILES) | IC50 (Plasmodium falciparum [1]) [µM] | IC50 (Plasmodium falciparum [2]) [µM] | IC50 (Plasmodium falciparum [3]) [µM] | IC50 (Plasmodium falciparum [4]) [µM] | IC50 at 72 h [5] [µM]
OCCN1CCC(NCCc2cc(Cl)cc(Cl)c2)CC1 | 4.07 | 3.63 | 3.31 | 6.61 | > 10
Nc1ccc(Nc2ccc(F)cc2)c2ccncc12 | 4.37 | 7.41 | 4.37 | 7.41 | > 10
O[C@H](COc1ccccc1CNCc1cc(-c2ccccc2)[nH]n1)CN1CCCCC1 | 3.02 | 3.98 | 3.89 | 7.76 | > 10
FC(F)(F)c1ccc(N2CCC[C@H](NC3CCN(Cc4ccco4)CC3)C2)nc1 | 7.59 | 7.59 | 8.13 | > 10 | > 10
COc1ccc2nc3cc(Cl)ccc3c(O)c2c1 | 0.912 | 1.41 | 2.4 | > 10 | > 10
Cn1nnc(C(=O)N2CCCCC23CCCCCC3)n1 | 2.24 | 5.5 | 2.29 | > 10 | > 10
CCc1oc2ccccc2c1CNC[C@H](O)c1ccc(Cl)cc1 | 0.513 | 0.977 | 0.955 | 0.776 | > 10
Cc1nc(N2CCN(C)CC2)cc(N2CCN(S(=O)(=O)c3ccccc3C(F)(F)F)CC2)n1 | 1.23 | 6.61 | 4.37 | 0.977 | > 10
COc1cc2nc(-c3ccc(F)c4cccnc34)nc(N)c2cc1OC | 0.912 | 1.1 | 1.12 | 1.55 | 1.02
CN([C@@H](c1ccccc1)c1ccccc1Br)S(=O)(=O)c1c[nH]c2ncccc12 | 7.08 | 9.77 | 7.41 | > 10 | > 10
Cc1ccc2nc(-c3cccc(NC(=O)c4ccc(OC(F)(F)F)c(Cl)c4)c3)[nH]c2n1 | 3.31 | 6.46 | 4.37 | > 10 | > 10
Nc1ccnc2ccc(-c3ccc(C(=O)NCC4CCOCC4)cc3)cc12 | 1.23 | 3.31 | 2.69 | > 10 | > 10
N#Cc1cccc(Cl)c1N1CCC(N2CCCC2)CC1 | 3.02 | 3.89 | 3.8 | > 10 | > 10
CN(Cc1cn(CC(N)=O)c2ccccc12)CC1CCN(CCc2ccc(F)cc2)CC1 | 4.07 | 4.17 | 4.37 | 7.41 | > 10
Cc1ccc(CNc2ncnc(N)c2Cl)c(N2CCCC2)n1 | 2.45 | > 10 | > 10 | 1.07 | > 10
Cc1cc(NC[C@H](O)COc2ccc(F)cc2)nc2ccccc12 | 2.19 | 6.92 | 4.07 | 4.17 | > 10
OC1(c2ccc(Cl)cc2)CCN(C[C@@H]2CCCN3CCCC[C@H]23)CC1 | 3.98 | 4.07 | 3.72 | 7.41 | > 10
Cc1ocnc1CNC[C@H](O)c1ccc(Cl)c(Cl)c1 | 2.14 | 4.27 | 3.02 | 3.31 | > 10
Clc1cccc(N2CC[C@H](CNC3CCN(Cc4ccco4)CC3)C2)c1 | 3.47 | 3.72 | 3.16 | 5.25 | > 10

Structure (SMILES) | IC50 (Plasmodium falciparum [1]) [µM] | IC50 (Plasmodium falciparum [2]) [µM] | IC50 (Plasmodium falciparum [3]) [µM] | IC50 (Plasmodium falciparum [4]) [µM] | IC50 at 72 h [5] [µM]
Cc1ccccc1CN1CCC(CNc2c3c(nc4ccccc24)CCC3)CC1 | 0.708 | 0.977 | 0.741 | 3.63 | 5.25
CCOc1cccc(N2CCN(C(=O)c3cc(-c4ccc(F)cc4)[nH]n3)CC2)n1 | 5.01 | > 10 | > 10 | 2.95 | > 10
CN1CCC(N(C)C[C@H](Nc2ncnc3ccccc23)c2ccccc2)CC1 | 0.977 | 1.7 | 1.23 | 1.62 | > 10
Cc1ccc2nc(NC[C@H]3CCN(C4CC4)C3)cc(C)c2c1 | 2.04 | 3.02 | 2.45 | 3.16 | > 10
Cc1ccccc1-c1cccc(N2CCC(NCC3CCNCC3)CC2)c1 | 1.15 | 1.41 | 1.29 | 2.88 | 5.5
NCCCCc1c(-c2cccnc2)[nH]c2c(Cl)cc(Cl)cc12 | 4.47 | 4.47 | 4.07 | 6.92 | 9.55
COC(CN(Cc1nc(N)nc(Nc2ccc(C)cc2)n1)Cc1nc(N)nc(Nc2ccc(C)cc2)n1)OC | 0.912 | 3.47 | 1.45 | > 10 | > 10
COc1ccc(CNCc2cc3ccccc3[nH]2)cc1CN(C)C | 3.39 | 3.47 | 2.29 | 5.89 | > 10
CN1CCN(CCOc2ccccc2CN(C)Cc2cc3cc(F)ccc3[nH]2)CC1 | 4.07 | 6.17 | 5.62 | 6.92 | 10.2
CN1CCN(CC2CCN(c3ccnc4ccccc34)CC2)CC1 | 1.35 | 1.35 | 1.2 | 1.91 | > 10
CCN1CCC[C@H](Nc2cccc(-n3ccnc3)n2)C1 | 3.63 | 4.37 | 3.8 | 7.08 | > 10
CN1C2CCC1CC(OC(=O)C1CCC(C(=O)OC3CC4CCC(C3)N4C)(c3ccccc3)c3ccccc31)C2 (stereo not given) | 2.88 | 3.8 | 3.31 | 3.89 | > 10
COc1ccc(-c2cc(-c3ccccc3O)n([C@@H]3C(=O)Nc4ccc(Br)cc43)n2)cc1 | 4.07 | 8.71 | 8.71 | 4.9 | > 10
N#Cc1ccc(N2C[C@H](COCC3CC3)C3(CCN(Cc4cccc(O)c4)CC3)C2)cc1C(F)(F)F | 1.78 | 2.69 | 2.69 | 4.68 | > 10
CNc1nc(C)cc(N[C@@H]2COc3ccccc3C2)n1 | 3.39 | 5.25 | 3.8 | > 10 | > 10
Cc1cc(N2CCC(NCCCN3CCCc4ccccc43)CC2)nc(N)n1 | 3.09 | 3.63 | 3.72 | > 10 | > 10
Cc1nc2ccc(CNC3CCN(c4ccc(F)c(F)c4)CC3)cc2[nH]1 | 4.57 | 3.72 | 3.55 | > 10 | > 10
Cc1cnccc1NCCNCc1cccc(OCCCCN2CCOCC2)c1 | 1.45 | 1.38 | 1.2 | 2.75 | > 10
CN1CCN(c2ccc(C(F)(F)F)cc2NCc2cnc[nH]2)CC1 | 4.07 | 4.68 | 4.27 | 6.61 | > 10
